{
  "source": "patent US20080114168A1",
  "about": "“Novel esters as useful broad spectrum herbicidal compounds” (priority 2004, published 2008)",
  "key": {"grasses": {"tested_on": "grasses", "experiment": "herbicidal activity against grasses, applied in aqueous solution", "type": "in vivo", "details": "applied in an aqueous solution at 500-2000 ppm"}, "broad leaved weeds": {"tested_on": "broad leaved weeds", "experiment": "herbicidal activity against broad leaved weeds, applied in aqueous solution", "type": "in vivo", "details": "applied in an aqueous solution at 500-2000 ppm"}, "[1]": {"tested_on": "glufosinate-resistant corn", "experiment": "crop selectivity", "type": "in vivo", "details": "aqueous solution at 500-2000 ppm"}, "[2]": {"experiment": "general herbicidal character (selective or non-selective)", "details": "in vivo"}},
  "data": [
    {"smiles": "CP(=O)(O)CCC(N)C(=O)Oc1cc(Cl)nnc1-c1ccccc1", "note": "(racemic) [Example 1, 6-chloro-3-phenylpyridazin-4-yl 4-[hydroxyl(methyl)phosphinoyl]-DL-alaninate]", "values": [
      {"measurement": "herbicidal activity against grasses", "setting": "grasses", "value": "active"},
      {"measurement": "herbicidal activity against broad leaved weeds", "setting": "broad leaved weeds", "value": "active"},
      {"measurement": "selectivity to crop", "setting": "[1]", "value": "selective"}
    ]},
    {"smiles": "CP(=O)(O)CCC(N)C(=O)Oc1c(Cl)cnc(Cl)c1Cl", "note": "(racemic) [Example 2]", "values": [
      {"measurement": "herbicidal activity against grasses", "setting": "grasses", "value": "active"},
      {"measurement": "herbicidal activity against broad leaved weeds", "setting": "broad leaved weeds", "value": "active"},
      {"measurement": "herbicide selectivity (general)", "setting": "[2]", "value": "powerful non-selective herbicide"}
    ]}
  ]
}
